Experimental data published in patent US20060079497A1, “Lavendamycin analogues and methods of synthesizing and using lavendamycin analogues” (Ball State University, priority 2004, published 2006).

Legend:
[1] = test system: tumor; experiment: Antitumor activity (applicant's earlier studies)
[2] = test system: mice; experiment: Animal toxicity studies in mice (National Cancer Institute and other studies); settings: SCID mice, 300 mg/kg/day for 10 days
[3] = biological target: T1, HIV reverse transcriptase (HIV-RT) (Human immunodeficiency virus type 1 group M subtype B, UniProt P04585); experiment: HIV-RT assay (3H-TTP incorporation, modified assay of Okada et al.); type: biochemical; settings: Mean IC50 ± SEM (no. of expts), 50% inhibition of HIV RT activity toward 1 unit of enzyme
T1 construct: 1 unit/mL of HIV-RT (Worthington Biochemical Corp., Freehold, N.J.); purchased Worthington Biochemical Corp., Freehold, N.J
Protocol: Briefly, the analogues were initially dissolved in either DMSO or HEPES buffer (pH 7.2) and then diluted to the appropriate concentration before addition to the assay mixtures. […] Several control wells without any inhibitors were also included on each microtiter plate. The reactions were allowed to proceed for 1 h at 37° C. […] A more detailed description of reaction conditions is provided below in the Examples. The concentration of drug which inhibited 50% of the enzyme activity (IC50) was determined by using the computer software program Calcusyn, which plots the dose-effect curves from the inhibition data and calculates the IC50 for each drug.
The assay procedure described below is adapted from Okada et al. (Okada, H.; Mukai, H.; Inouye, Y; Nakamura, S. “Biological Properties of Streptonigrin Derivatives II. Inhibition of Reverse Transcriptase Activity,” J. Antibiot., 1986, 39, 306-308). The lavendamycin analogs were initially dissolved in DMSO at a concentration of 1 mg/mL. Occasionally, mild sonication and heat were used to dissolve the less soluble compounds. The dissolved analogs were then serially diluted in distilled water to achieve concentrations in the final reaction mixture ranging from 0.5-15 μM. In addition to the lavendamycin analogs, the final reaction mixture contained 100 mM Tris-HCl (pH 8.0), 5 mM MgCl2, 5 mM dithiothreitol, 60 mM NaCl, 0.2 mM [^3H] thymidine triphosphate(5 μCi well), 4 μg/mL poly (rA)-oligo(dT)12-18 (Amersham Pharmacia Biotech, Piscataway, N.J.) and 1 unit/mL of HIV-RT (Worthington Biochemical Corp., Freehold, N.J.) in a total volume of 300 μL. For each assay, the reaction mixture containing 8× buffer, double distilled H2O, ^3HTTP, template-primer and HIV-RT was pre-mixed in a 15-mL sterile tube in quantities required for the particular experiment. After adding the enzyme, the reaction mixture was mixed and kept on ice. The inhibitors, either AZT(Moravek Biochemicals, Brea, Calif.), analogs or both were added to appropriate wells in a 24 well microtiter plate and ddH2O was added to each well to bring the volume of all test wells to 100 μL. Two hundred μL of the chilled reaction mixture was then added to each of the test wells, mixed, and incubated for 1 hr at 37° C. Several control wells with no inhibitors were included on each test plate. After stopping the reactions with 25 μL 0.1 M EDTA, triplicate samples of 15 μL from each test well were spotted on DE81 ion exchange filter paper squares (Whatman Paper, Maidstone, England). After drying, each filter was washed for 10 minutes three times with 5% TCA-NHPO4, three times with 0.6M NaCl-[…] Na Citrate, one time with ddH2O and one time with 95% ethanol. After drying the individual filter papers were added to 5 mL Scintiverse E (Fisher Scientific, Chicago, Ill.) scintillation fluid and the amount of 3H-TTP uptake measured as counts per minute on a Beckman liquid scintillation counter. […] The results were then analyzed using Calcusyn, a windows software program for dose effect analysis designed by T. -C. Chou and M. P. Hayball and published by Biosoft® (UK).

[4] = Cytotoxicity assay (MTT), normal murine spleen cells stimulated with concanavalin A; type: cell-based; settings: normal murine spleen cells stimulated with concanavalin A; normal mouse spleen stimulated with concanavalin A inhibited by 50%; read-out: Mean CC50 (Normal Mouse Spleen) ± SEM (no. of expts)
Protocol: (§1) Normal murine spleen cells were washed in HBSS, cultured at 2.5×10^6 or 5×10^6 cells per mL in RPMI 1640 (with Hepes) complete medium with 2 mM-L-glutamine, 1 mM sodium pyruvate, 0.05 mM β-mercaptoethanol, penicillin, streptomycin, and amphotericin B with 10% fetal calf serum and Concanavalin A (ConA) at 2.5 μg/mL in a 96-well microtiter plate. A range of diluted analogs were added to triplicate culture wells and the cells were incubated at 37° C. in 5% CO2. Wells containing cells, media and ConA were used as controls. Forty-eight hours post incubation, 20 μL of the vital dye MTT (3-[4,5-Dimethylthiazol-2-yl]-2,5-diphenyltetrazolium bromide; thiazolyl blue) at 5 mg/mL was added to each well and the cultures re-incubated for 4-6 hours. Following centrifugation, the supernatants were decanted and the stained cells were resuspended in 100 μL of 0.4% HCl acidified isopropanol. The optical densities of each well were read at 600 nm using a Cambridge Technologies series 700 microplate reader. The human lymphocytic cell lines CCRF-CEM (ATCC: HTB 176) and H-9 (ATCC: CCL 119) were subcultured from recently cultured cells grown in complete RPMI 1640 medium as described above but without the β-mercaptoethanol and ConA at 6.25×10^5 and 2×10^6 per mL in a 96 well culture plate. These cell numbers represented log phase and early stationary phase of the freshly cultured cells. As these cell lines rapidly reproduce without mitogenic stimulation, Con A was not used. A range of analogues or media alone was added in triplicate to the cultures and the cultures incubated, pulsed with MTT, harvested and their growth estimated as described above for the murine cultures. The CC50 or the concentration of drug which inhibited cell growth as estimated by MTT formazan production to 50% of that of untreated control cells was determined by linear interpolation for each lavendamycin analog.

[5] = Cytotoxicity assay (MTT), human lymphocytic cell lines, pooled data; type: cell-based; settings: human lymphocytic cell lines CCRF-CEM and H-9, pooled data, H-9 and CEM inhibited by 50%, read-out: Mean CC50 (Human Cell Lines) ± SEM (no. of expts)
Protocol: as §1

[6] = Animal toxicity studies in mice (National Cancer Institute and other studies); settings: mouse, in vivo
[7] = test system: mice; settings: cited from earlier work

COC(=O)c1cc2c([nH]c3ccccc32)c(-c2ccc3c(n2)C(=O)C(N)=C(OC)C3=O)n1
melting point: > 280 °C

COC(=O)c1nc(-c2ccc3c(n2)C(=O)C(N)=C(OC)C3=O)c2[nH]c3ccccc3c2c1C
melting point: > 280 °C

COC(=O)c1nc(-c2ccc3c(n2)C(=O)C(N)=CC3=O)c2[nH]c3ccccc3c2c1C [Compound 2b, lavendamycin methyl ester, reference compound]
antitumor activity [1]: highly active antitumor agents

CCCCCCCCOC(=O)c1cc2c([nH]c3ccccc32)c(-c2ccc3c(n2)C(=O)C(NC(C)=O)=CC3=O)n1 [Compound 15, 7-N-Acetyldemethyllavendamycin n-Octyl Ester]
tolerability [2]: no animal death or loss of weight

NC(=O)c1cc2c([nH]c3ccccc32)c(-c2ccc3c(n2)C(=O)C(N)=CC3=O)n1 [Compound 21, Demethyllavendamycin Amide]
IC50 [3]: 20.5 ± 5 µM
CC50 at 48 h [4]: 15 ± 2 µM
CC50 at 48 h [5]: 17 ± 3 µM
antitumor activity [1]: highly active antitumor agents
MTD [6]: 400 mg/kg

COc1cccc2c1C(=O)c1c(O)c3c(c(O)c1C2=O)C[C@@](O)(C(=O)CO)C[C@@H]3O[C@H]1C[C@H](N)[C@H](O)[C@H](C)O1 [adriamycin]
maximally tolerated dose ([7]; once a week for three weeks): below 10 mg/kg

Cc1c(C(=O)O)nc(-c2ccc3c(n2)C(=O)C(N)=CC3=O)c2[nH]c3ccccc3c12 [lavendamycin]
maximum tolerated dose ([7]; reported): 12.8 mg/kg

COC1=C(N)C(=O)c2nc(-c3nc(C(=O)O)c(C)c(-c4ccc(OC)c(OC)c4O)c3N)ccc2C1=O [streptonigrin]
lethal dose [7]: ≥ 0.4 mg/kg
